Results from US11179388B2, “Topical composition for treating rosacea and a method for treating rosacea with the same” (ADS THERAPEUTICS LLC, priority 2017, dated 2021).

Assays:
[1] = test system: pterygium patients (pterygium vascularity); test: Phase 2a clinical trial of nintedanib eye drop in pterygium patients; format: in vivo, human
Description: Nintedanib was formulated into an eye drop and tested in pterygium patients in a Phase 2a clinical trial to evaluate the safety and efficacy of nintedanib. The key efficacy endpoint is effects on pterygium vascularity.
The clinic trial was conducted in two stages. In stage 1, the safety, tolerability and pharmacokinetics were evaluated in a single dose escalating study. Three dose cohorts with 8 patients in each were evaluated. Cohort 1 began at the lowest concentration of 0.02% nintedanib (weight percent based on the total weight of the eye drop), followed by an increasing dose to 0.05% for Cohort 2 and then to 0.2% for Cohort 3.
In stage 2, the safety, tolerability and efficacy of the 0.2% formulation were evaluated in a randomized, double-masked, vehicle-controlled, parallel study with 28 days TID repeat ocular dosing of vehicle and 0.2% nintedanib. The patients were further followed up by 20 weeks of post-dosing observation. Ophthalmic and physical examinations were performed at screening, Day 1 and Week 2, 4, 8, 16, and 24. External photograph of the pterygium eye was taken using a digital camera and the pterygium vascularity was graded from these images at an independent image reading center. The primary objective is to evaluate ocular and systemic safety of nintedanib in pterygium patients that have moderate to severe pterygium vascularity. […]

[2] = test system: Rosacea patients with moderate to severe persistent facial erythema; test: Erythema study, Clinician Erythema Assessment (CEA) in rosacea patients; format: in vivo, human
Excerpt: Rosacea patients with moderate to severe persistent facial erythema are selected for treatment. The erythema is graded according to the Clinician Erythema Assessment (CEA) scale with photonumeric guide. It has a five-point scale: 0: clear skin with no signs of erythema; 1: almost clear, slight redness; 2: mild erythema, definite redness; 3: moderate erythema, marked redness; 4: severe erythema, fiery redness. Patients with CEA […] are enrolled in the study.
The study is double-masked. There are 5 treatment groups for 5 cream formulations (vehicle, 0.2% nintedanib, 0.3% brimonidine, combo-1 [0.2% nintedanib and 0.3% brimonidine], and combo-2 [0.1% nintedanib and 0.15% brimonidine]) to be tested and each group will have about 20 patients. The patients are assigned to the groups in a way to make sure the base line average grade is similar among the groups. The formulations are dosed once daily for 4 weeks and the patients are further followed up for 8 weeks. The drug is administered by a physician on the first day of visit and then self-administered by the patient for the remaining 4 weeks. Patients are evaluated on day 1, week 2 and 4 during dosing. After the stop of dosing, patients are further followed up at week 8 and 12.
The effect on erythema is evaluated by taking pictures of the face. […] The tolerability of the formulations is also evaluated by assessing treatment related adverse events. The efficacy and tolerability data are analyzed by independent statisticians.

[3] = day 1 after dosing, cream formulations
[4] = week 1, 2 and 4, during dosing, cream once daily

## COC(=O)c1ccc2c(c1)NC(=O)/C2=C(\Nc1ccc(N(C)C(=O)CN2CCN(C)CC2)cc1)c1ccccc1 [Nintedanib, (Z)-3-(1-(4-(N-((4-methyl-piperazin-1-yl)-methylcarbonyl)-N-methyl-amino)-phenylamino)-1-phenyl-methylene]-6-methoxycarbonyl-2-indolinone]
[1]; 0.2% eye drop TID 28 days, 20 weeks post-dosing observation
  safety and tolerability (stage 2): excellent with no serious adverse events
[1]; eye drop 0.02%, 0.05% and 0.2%, single dose, 8 patients per cohort
  safety, single dose escalating study (stage 1): No safety issues
[2]; after stop of dosing at week 4, week 8 and 12
  erythema grade after stop of treatment: remains lower than the baseline
[2]; [3]
  erythema grade reduction from baseline: does not change
[2]; [4]
  erythema grade reduction from baseline: about 1 grade

## Brc1c(NC2=NCCN2)ccc2nccnc12 [brimonidine, (5-bromoquinoxalin-6-yl)-(4,5-dihydro-1H-imidazol-2-yl)-amine]
[2]; [3]
  erythema grade reduction from baseline: about 1 grade
[2]; [4]
  erythema grade reduction from baseline: reduction remains
[2]; week 8
  erythema grade versus baseline after stop of treatment: slightly higher than baseline
[2]; week 12
  erythema grade versus baseline after stop of treatment: returns to the baseline
